Data from patent publication EP4438596A1, “DIAMINOPYRIMIDINE DERIVATIVES AS HDAC AND DHFR DUAL-TARGETING INHIBITORS AND USE THEREOF IN PREVENTING AND TREATING MALARIA” (Université de Lille, priority 2023, dated 2024).
Counter-ions that a name gives are not always drawn. Like-named read-outs stand apart in the source and are kept apart here.

Legend:
[1] = test system: multidrug-resistant P. falciparum line Dd2; experiment: Plasmodium falciparum growth inhibition assay (SYBR Green I, flow cytometry), multidrug-resistant line; format: cell-based; settings: Plasmodium falciparum, DD2, 48 h, line resistant to CQ, PYR and mefloquine, mean ± SD, n ≥ 2, read-out: PfDd2 IC50
Method: (§1) Plates were incubated under standard P. falciparum culture conditions for 48 h. […] Fixed parasitized red blood cells (RBC) were stored at 4 °C in the dark until flow cytometry analysis. Parasite growth was assessed by flow cytometry on a BD FACS Cantoll (BD Biosciences) or a Attune™ NxT Flow Cytometer (Invitrogen). Cell doublets were excluded from the analysis using a forward scatter (FSC)-width versus FSC-area dot plot. Infected and uninfected erythrocytes were gated on the basis of their FSC and side scatter (SSC) signals. Fluorescence analysis (Green fluorescence FITC) was performed using BD FACSDiva software (BD Biosciences) on a total of 200,000 acquired events. […] Fluorescence of non-infected RBC was adjusted to plot between 10° and 10^2. Results are expressed as the percentage of growth inhibition.
(§2) All IC50 values were calculated using log-linear interpolation (www.antimalarial-icestimator.net), with mean values (± SD) determined over at least two independent experiments.

[2] = test system: P. falciparum 3D7-infected erythrocytes; experiment: Plasmodium falciparum growth inhibition assay (SYBR Green I, flow cytometry), drug-sensitive strain; format: cell-based
Method: as §1, §2

[3] = test system: P. berghei ANKA parasites; experiment: Peters 4-day suppressive test, oral efficacy in P. berghei-infected mice; format: in vivo, Plasmodium berghei
Method: Compounds powder was dissolved in DMSO and sonicated for 10 min. Appropriate volume of 50%W/v HPβCD was added dropwise under gentle swirling. After 10 min sonication, DPBS was added dropwise under gentle swirling and the mixture was sonicated again for 10 min. After checking the pH (5.5 - 7), the solution was filtered (0.22µm) and conserved at room temperature for max 2 days. Final concentration of compounds was 2.5 mg/mL, 1 mg/mL or 0.1 mg/mL for mice treatment with 25 mg/kg, 10 mg/kg or 1mg/kg doses.
10 weeks-old Balb/C male mice were purchased from Janvier Labs.
P. berghei ANKA parasites stabilates conserved in liquid nitrogen were thawed and injected intraperitoneally (ip) into 2-3 mice (10^6 infected red blood cells (RBC) / mouse). When parasitemia reached 3-5%, mice were bled and groups of six BALB/c male mice were infected with 10^6 P. berghei ANKA parasites (day 0), and treated per os (p.o.) twice a day on days 0, 1, 2 and 3. […] On day 4 post infection (p.i.), the peripheral blood parasitemia of all mice was evaluated via microscopic examination of Giemsa-stained thin blood smears. Parasitemia was then followed for two weeks.

[4] = Plasmodium falciparum, 3D7, Erythrocyte, 48 h incubation, mean ± SD, n ≥ 2, read-out: Pf3D7 IC50
[5] = Plasmodium falciparum, 3D7, Erythrocyte, 48 h incubation, read-out: IC50 (Pf3D7)
[6] = Experiment 3, Balb/C mice, 1 mg/kg p.o. twice a day on days 0-3, day 4 p.i.
[7] = Experiment 3, Balb/C mice, 1 mg/kg p.o. twice a day on days 0-3, day 5 p.i.
[8] = Experiment 3, Balb/C mice, 1 mg/kg p.o. twice a day on days 0-3, day 6 p.i.
[9] = Experiment 3, Balb/C mice, 1 mg/kg p.o. twice a day on days 0-3, day 7 p.i.
[10] = Experiment 3, Balb/C mice, 1 mg/kg p.o. twice a day on days 0-3, day 8 p.i.
[11] = Experiment 3, Balb/C mice, 1 mg/kg p.o. twice a day on days 0-3, day 10 p.i.
[12] = Plasmodium falciparum, 3D7, Erythrocyte, 48 h, read-out: Pf3D7 IC50

CCc1nc(N)nc(N)c1OCCCOc1ccccc1CCC(=O)NO.Cl [1·HCl, 3-(2-[3-(2,4-Diamino-6-ethylpyrimidin-5-yloxy)propoxy]phenyl)-N-hydroxypropanamide hydrochloride]
IC50 [1]: 19.8 ± 0.9 nM
IC50 [2, 4]: 0.17 ± 0.018 nM
IC50 [2, 5]: < 0.2 nM
activity in vivo against Plasmodium berghei ([3]; Experiment 1 (Fig. 1), Balb/C mice, 10mg/kg and 25mg/kg orally twice a day on days 0,1,2,3): active in vivo
parasites in treated mice ([3]; Experiment 3, 1 mg/kg p.o. twice a day on days 0-3, day 4 p.i.): undetectable
number of mice showing blood parasites [3, 6]: 0/6
parasitemia (mean ± sd) [3, 6]: 0%
number of mice showing blood parasites [3, 7]: 1/6
parasitemia (mean ± sd) [3, 7]: 0,07 ± 0,16%
number of mice showing blood parasites [3, 8]: 1/6
parasitemia (mean ± sd) [3, 8]: 0,15 ± 0,37%
number of mice showing blood parasites [3, 9]: 1/6
parasitemia (mean ± sd) [3, 9]: 0,31 ± 0,76%
number of mice showing blood parasites [3, 10]: 1/6
parasitemia (mean ± sd) [3, 10]: 1,31 ± 3,21%
number of mice showing blood parasites [3, 11]: 1/6
parasitemia (mean ± sd) [3, 11]: 0,7 ± 1,72%
parasites in treated mice ([3]; Experiments 1 and 2, 10 mg/kg p.o. twice a day on days 0-3, day 4 p.i.): undetectable
parasites in treated mice, follow-up ([3]; Experiments 1 and 2, 10 mg/kg p.o. twice a day on days 0-3, until the end of the experiments): remained undetectable
parasite clearance after oral administration ([3]; oral route, 10 mg/kg): achieved parasite clearance

CCc1nc(N)nc(N)c1OCCCCOc1ccccc1CCC(=O)NO [3·HCl, 3-(2-[4-(2,4-Diamino-6-ethylpyrimidin-5-yloxy)butoxy]phenyl)-N-hydroxypropanamide hydrochloride]
IC50 [2, 4]: 0.451 ± 0.088 nM

CCc1nc(N)nc(N)c1OCCCOc1cc(OC)ccc1CCC(=O)NO [4·HCl, 3-(2-[3-(2,4-Diamino-6-ethylpyrimidin-5-yloxy)propoxy]-4-methoxyphenyl)-N-hydroxypropanamide hydrochloride]
IC50 [1]: 6.2 ± 0.5 nM
IC50 [2, 4]: 0.173 ± 0.122 nM
IC50 [2, 5]: < 0.2 nM

CCc1nc(N)nc(N)c1OCCCOc1cc(Cl)ccc1CCC(=O)NO [5·HCl, 3-(4-Chloro-2-[3-(2,4-diamino-6-ethylpyrimidin-5-yloxy)propoxy]phenyi)-N-hydroxypropanamide hydrochloride]
IC50 [2, 12]: 0.279 ± 0.154 nM

CCc1nc(N)nc(N)c1OCCCOc1cc(OC)ccc1/C=C/C(=O)NO [14·HCl, (E)-3-{2-[3-(2,4-Diamino-6-ethylpyrimidin-5-yloxy)propoxy]-4-methoxyphenyl}-N-hydroxyacrylamide hydrochloride]
IC50 [2, 4]: 0.088 ± 0.02 nM
IC50 [2, 5]: < 0.1 nM

CCc1nc(N)nc(N)c1OCCOc1cccc(/C=C/C(=O)NO)c1 [18·HCl, (E)-3-(3-[2-(2,4-Diamino-6-ethylpyrimidin-5-yloxy)ethoxy]phenyl)-N-hydroxyacrylamide hydrochloride]
IC50 [2, 4]: 0.249 ± 0.015 nM

CCc1nc(N)nc(N)c1OCCCOc1cccc(/C=C/C(=O)NO)c1 [19·HCl, (E)-3-{3-[3-(2,4-Diamino-6-ethylpyrimidin-5-yloxy)propoxy]phenyl}-N-hydroxyacrylamide hydrochloride]
IC50 [1]: 41.5 ± 11.9 nM
IC50 [2, 4]: 0.173 ± 0.021 nM
IC50 [2, 5]: < 0.2 nM

CCc1nc(N)nc(N)c1OCCCOc1ccc(/C=C/C(=O)NO)cc1 [20·HCl, (E)-3-{4-[3-(2,4-Diamino-6-ethylpyrimidin-5-yloxy)propoxy]phenyl}-N-hydroxyacrylamide hydrochloride]
IC50 [2, 4]: 0.117 ± 0.045 nM
IC50 [2, 5]: < 0.2 nM

CCN(CC)CCCC(C)Nc1ccnc2cc(Cl)ccc12 (centres unmarked) [CQ, chloroquine, reference compound]
IC50 [2, 12]: 4.7 ± 1.7 nM
parasitemia (mean ± sd) ([3]; Experiment 3, positive control, 10 mg/kg p.o. once a day for 4 days, day 4 p.i.): 0%
parasitemia (mean ± sd) ([3]; Experiment 3, positive control, 10 mg/kg p.o. once a day for 4 days, day 5 p.i.): 0%
parasitemia (mean ± sd) ([3]; Experiment 3, positive control, 10 mg/kg p.o. once a day for 4 days, day 6 p.i.): 0%
parasitemia (mean ± sd) ([3]; Experiment 3, positive control, 10 mg/kg p.o. once a day for 4 days, day 7 p.i.): 0%
parasitemia (mean ± sd) ([3]; Experiment 3, positive control, 10 mg/kg p.o. once a day for 4 days, day 8 p.i.): 0%
parasitemia (mean ± sd) ([3]; Experiment 3, positive control, 10 mg/kg p.o. once a day for 4 days, day 10 p.i.): 0%

CCc1nc(N)nc(N)c1OCCCOc1ccccc1CCC(=O)NOCc1ccccc1 [Compound 7, N-(Benzyloxy)-3-(2-(3-(2,4-diamino-6-ethylpyrimidin-5-yloxy)propoxy)phenyl)propanamide]
IC50 [2, 4]: 0.497 ± 0.055 nM

CCc1nc(N)nc(N)c1OCCCOc1cc(C(=O)NO)ccc1Cl [Compound 9, 4-Chloro-3-[3-(2,4-diamino-6-ethylpyrimidin-5-yloxy)propoxy]-N-hydroxybenzamide]
IC50 [1]: 16.9 ± 3.2 nM
IC50 [2, 4]: 0.172 ± 0.027 nM
IC50 [2, 5]: < 0.2 nM

CCc1nc(N)nc(N)c1OCCCOc1cc(C(=O)NO)ccc1F [Compound 10, 3-(3-[2,4-Diamino-6-ethylpyrimidin-5-yloxy)propoxy]-4-fluoro-N-hydroxybenzamide]
IC50 [2, 4]: 0.39 ± 0.012 nM

CCc1nc(N)nc(N)c1OCCCOc1cccc(C(=O)NOCc2ccc(OC(C)=O)cc2)c1 [Compound 11, N-(4-Acetoxybenzyloxy)-3-[3-(2,4-diamino-6-ethylpyrimidin-5-yloxy)propoxy]benzamide]
IC50 [2, 4]: 1.02 ± 0.68 nM
IC50 [2, 5]: < 0.2 nM
ranking of activity against P. berghei infection ([3]; Experiment 3, 1 mg/kg p.o. twice a day on days 0-3): most active

CCc1nc(N)nc(N)c1OCCCOc1cc(Cl)ccc1/C=C/C(=O)NO [Compound 15, (E)-3-{4-Chloro-2-[3-(2,4-diamino-6-ethylpyrimidin-5-yloxy)propoxy]phenyl}-N-hydroxyacrylamide]
IC50 [1]: 4 ± 0.4 nM
IC50 [2, 4]: 0.082 ± 0.007 nM
IC50 [2, 5]: < 0.1 nM

CCc1nc(N)nc(N)c1OCCCOc1ccccc1/C=C/C(=O)NOCc1ccc(OC(C)=O)cc1 [Compound 16, (E)-N-(4-Acetoxybenzyloxy)-3-{2-[3-(2,4-diamino-6-ethylpyrimidin-5-yloxy)propoxy]phenyl}acrylamide]
IC50 [2, 4]: 0.067 ± 0.005 nM
IC50 [2, 5]: < 0.1 nM
number of mice showing blood parasites [3, 6]: 1/5
parasitemia (mean ± sd) ([3]; Experiment 3, Balb/C mice, 1 mg/kg p.o. twice a day on days 0-3, day 4 p.i., 1 mg/kg): 0,02 ± 0,04%
number of mice showing blood parasites [3, 7]: 2/5
parasitemia (mean ± sd) [3, 7]: 0,48 ± 0,72%
number of mice showing blood parasites [3, 8]: 3/5
parasitemia (mean ± sd) [3, 8]: 2,22 ± 2,44%
number of mice showing blood parasites [3, 9]: 3/5
parasitemia (mean ± sd) [3, 9]: 5,21 ± 7,86%
number of mice showing blood parasites [3, 10]: 5/5
parasitemia (mean ± sd) [3, 10]: 5,33 ± 5,64%
number of mice showing blood parasites [3, 11]: 5/5
parasitemia (mean ± sd) [3, 11]: 9,25 ± 7,38%

CCc1nc(N)nc(N)c1OCCCOc1ccccc1/C=C/C(=O)NOCc1ccccc1 [Compound 17, (E)-N-(Benzyloxy)-3-{2-[3-(2,4-diamino-6-ethylpyrimidin-5-yloxy)propoxy]phenyl}acrylamide]
IC50 [2, 4]: 0.331 ± 0.124 nM

CCc1nc(N)nc(N)c1OCCCOc1cccc(COc2cccc(/C=C/C(=O)NO)c2)c1 [Compound 21, (E)-3-(3-(3-[3-(2,4-Diamino-6-ethylpyrimidin-5-yloxy)propoxy]benzyloxy)phenyl)-N-hydroxyacrylamide hydrochloride]
IC50 [2, 4]: 0.347 ± 0.047 nM

CCc1nc(N)nc(N)c1OCCCOc1cccc(C(=O)NCCCCCCC(=O)NO)c1 [Compound 30, 3-{3-[(2,4-Diamino-6-ethylpyrimidin-5-yl)oxy]propoxy}-N-[7-(hydroxyamino)-7-oxoheptyl]benzamide]
IC50 [2, 4]: 0.876 ± 0.018 nM

CCc1nc(N)nc(N)c1OCCCOc1ccc(C(=O)NCCCCCCC(=O)NO)cc1 [Compound 31, 4-{3-[(2,4-Diamino-6-ethylpyrimidin-5-yl)oxy]propoxy}-N-[7-(hydroxyamino)-7-oxoheptyl]benzamide]
IC50 [1]: 22.8 ± 2.6 nM
IC50 [2, 4]: 0.404 ± 0.136 nM

N-(4-Acetoxybenzyloxy)-3-(2-(3-(2,4-diamino-6-ethylpyrimidin-5-yloxy)propoxy)phenyl)propenamide [Compound 6]
IC50 ([2]; 48 h incubation, mean ± SD, n ≥ 2, read-out: Pf3D7 IC50): 0.169 ± 0.041 nM
